Experimental data published in ChEMBL document CHEMBL2448809, “UCSF DeRisi Lab MMV Box Apicoplast Screening”.

Tested on: Plasmodium falciparum
Experiment: MMV: Compounds (1uM) were screened in a 72hr growth assay monitored by flow cytometry both in the presence and absence of supplemental isopentenyl pyrophosphate (IPP) 200uM. Compounds which fail to show anti-malarial activity when chemically rescued by IPP are therefore specific to the apicoplast. The values are expressed as the ratio of the corresponding activity with and without IPP, respectively.
Assay type: functional, W2

Structure (SMILES)	Ratio
COc1ccc(Nc2nc(N/N=C/c3ccc(O)cc3)nc(Nc3ccc([N+](=O)[O-])cc3)n2)cc1	1.812
N=c1n(CCN2CCCCC2)c2ccccc2n1CC(=O)c1ccc(Cl)c(Cl)c1	1.14
Cc1sc(NC(=O)c2ccco2)c(C(c2cccnc2)N2CCC(Cc3ccccc3)CC2)c1C (configuration not stated)	1.123
COc1cc(C(=O)Nc2nc3c(cc4c5c(cccc53)CC4)s2)cc(OC)c1OC	0.8259
O=C(NNc1cc(N2CCCC2)nc(N2CCCC2)n1)c1ccccc1	0.9508
COC(=O)c1ccc(Cl)c2c1C1C=CCC1C(c1cccc3ccccc13)N2 (configuration not stated)	1.081
O=C(CCc1ccccc1)c1ccccc1OCC(O)CN1CCCCC1 (configuration not stated)	1
OC1=C2C(=Nc3ccccc3SC2c2ccccc2)c2ccccc21 (configuration not stated)	1.213
COc1cc(C(=O)Nc2ccc(-c3nc4ccccc4[nH]3)cc2)cc(OC)c1OC	0.6522
COC(=O)c1ccc(C2C3=C(O)CC(c4ccc(F)cc4)CC3=Nc3ccccc3N2C(=O)c2ccccc2)cc1 (configuration not stated)	0.9016
CCOc1ccc(CN2CCN(CC(O)COc3ccc(OCC(O)CN4CCN(Cc5ccc(OCC)cc5)CC4)cc3)CC2)cc1 (configuration not stated)	0.9863
CCCCNc1nc(NC(C)(C)C)nc(NC(C)(C)C)n1	1.02
CC(=O)c1sc(NC(=O)Nc2ccc(C)cc2C)nc1C	0.843
Cn1c(C(=O)c2cccc3ccccc23)nc2ccccc21	0.8689
Oc1ccc2ccccc2c1CNc1nc2ccccc2[nH]1	0.578
O=C(Nc1ccc(-c2nc3ccccc3[nH]2)cc1)c1ccc(Cl)c(Cl)c1	0.9295

Structure (SMILES)	Ratio
OCCNc1nc(Nc2ccc(Cl)c(Cl)c2)nc2ccccc12	1.062
Nc1ccc(-c2nc3cc(Oc4ccc(Oc5ccc6[nH]c(-c7ccc(N)cc7)nc6c5)cc4)ccc3[nH]2)cc1	1.143
Cc1cc(N(C)C)nc(Nc2ccc(NC(=O)Nc3ccccc3)cc2)n1	1.017
COc1cc(C(=O)ON=C(N)Cc2cccc3ccccc23)cc(OC)c1OC	1.265
Oc1c(C(Nc2ccccn2)c2cccc(Oc3ccccc3)c2)ccc2cccnc12 (configuration not stated)	0.7317
COc1cc(-c2nc(-c3ccccc3)c(-c3ccccc3)[nH]2)cc(OC)c1O	1.031
Cc1ccc(Nc2nc(N)c3ccccc3n2)cc1Cl	0.9206
CCc1ccc(CNCC(O)c2ccccc2)cc1.Cl (configuration not stated)	1.061
Br.CCn1c2c(c(=N)c3c1CCC3)CCCC2	0.8374
Cc1ccc2c(C)nc(Nc3nc(C)cc(-c4ccccc4)n3)nc2c1	0.8649
CCOc1ccc(Nc2ccnc3cc(Cl)ccc23)cc1	0.8831
Br.Cc1ccc(C)c(-c2csc(Nc3ccc(C)c(C)c3)n2)c1	1.048
CCCn1c(=N)c(C(=O)NC2CCCCC2)cc2c(=O)n3cccc(C)c3nc21	0.8
Nc1ccn([C@@H]2O[C@H](CO)[C@@H](O)[C@H]2O)c(=O)n1 [CYTIDINE]	0.6667
O=C(Nc1cccc(C2=NCCN2)c1)Nc1cccc(C2=NCCN2)c1 [IMIDOCARB]	1
CN(C)c1ccc(C(O)(c2ccc(N(C)C)cc2)c2ccc(N(C)C)cc2)cc1 [METHYLROSANILINE]	1.127
